From patent publication US20160207930A1 (LEO PHARMA A/S, priority 2013, published 2016)
pIC50: −log10 of the molar value.

Legend:
[1] = biological target: T1, NK1 Receptor (Homo sapiens, UniProt P25103); experiment: NK1 receptor mediated intracellular [Ca2+] mobilization in U251 MG cells using FLIPR; type: cell-based; settings: antagonism of Substance P (EC80), Fluo-4, read-out: NK1R mediated intracellular [Ca^2+] mobilization IC 50
T1 construct: Measurement of NK1 Receptor Mediated Intracellular [Ca^2+]; Mobilization in U251 MG Cells Using FLIPR; endogenous in cells; host or cells: U251 MG cells
Protocol: Measurement of NK1 Receptor Mediated Intracellular [Ca^2+] Mobilization in U251 MG Cells Using FLIPR
U251 MG cells were seeded into black walled clear-bottom 384-well plates (Greiner Bio-One GmbH, Frickenhausen, Germany) at a density of 15,000 cells/well in 50 μl culture medium and cultured overnight in a 37° C. 5% CO2 incubator. The cells were then loaded with the calcium sensitive dye Fluo-4 (Invitrogen) at 1 μM in buffer, containing 0.04% Pluronic F-127 (Sigma-Aldrich), and 2.5 mM probenecid (Sigma-Aldrich) for 60 min in a humidified atmosphere of 5% CO2. Thereafter, cells were washed three times in washing buffer containing 20 mM HEPES and 2.5 mM probenecid pH 7.3. Serial dilutions of test compounds in assay buffer containing 2% dimethyl sulfoxide (final concentration in the cell plate is 0.5% DMSO) and/or agonist were then automatically pipetted into each test well, and the peak fluorescence intensity was recorded (lex, 488 nm; lem, 540 nm) by the FLIPR instrument (Molecular Devices) for approximately 5 min. To measure antagonist potency, cell plates were first incubated with the test compound and intracellular fluorescence recorded for 5 minutes to check a potential agonist effect of the test compound. Cell plates were quickly removed from the FLIPR instrument and incubated for additional 10 minutes at 37° C. before being moved back to the FLIPR instrument for Substance P (EC80) addition. The response was measured as the peak relative fluorescence change after agonist addition.
Compound relative %-effect was normalized to the maximal response evoked by 100 nM Aprepitant in presence of the EC80 of Substance P and the antagonist potency determined by non-linear regression using GraphPad Prism (version 5) or the four-parameter logistic model in XLfit (IDBS, Guilford, UK) for Microsoft Excel (Microsoft, Redmond, Wash.). The IC50 value is defined as the molar concentration of a test compound that produces a response midway between the fitted top and the fitted bottom. pIC50=−log IC50
Formula is listed as follows:
Fit (% Effect calculated)=(A+((B−A)/(1+((C/X)̂D)))) • A: bottom value • B: top value • C: test compound concentration • X: Relative IC50 • D: Hill slope coefficient
Ref: Sullivan E, Tucker E M, and Dale I L. Measurement of [Ca^2+] using the Fluorometric Imaging Plate Reader (FLIPR). Methods Mol Biol 114:125-133, 1999.
Compounds of the present invention were tested according to example 100.

[2] = Hepatic intrinsic clearance following incubation in human liver microsomes; type: in vitro ADME; settings: 0.5 μM test compound, NADPH, 0-30 min, scaled to g liver
Protocol: Hepatic Extraction Ratio from Hepatic Intrinsic Clearance Following Incubation in Human Liver Microsomes
The general procedure consists of an automated incubation system and LC-MS/MS analysis with human liver microsomes. Human liver microsomes are thawed rapidly in a waterbath at 37° C. and kept on ice until use. The human liver microsomes are diluted with 50 mM potassium phosphate buffer pH 7.4 to a protein concentration of 0.55 mg/mL. Test compounds and positive controls (Verapamil and Dextromethorphan, positive controls for CYP3A4 for CYP2D6 isoforms, respectively) are dissolved in methanol (or other appropriate solvent, if necessary) in order to obtain a 5 mM solution which is further diluted to the concentration of 50 μM. The stock solutions are prepared immediately before the test.
5 μL of 50 μM test compounds and controls are added to 445 μL-of the 0.55 mg/mL microsomes solution and the incubation mixture are pre-warmed at 37° C. for 5 minutes. The incubation reactions are initiated by adding 50 μL of pre-warmed NADPH regenerating system to the incubation mixtures. 50 μL-aliquots will be taken from the incubation mixtures at: 0, 3, 6, 9, 15 and 30 minutes and the reactions are stopped by adding 100 μL of ACN containing Rolipram, used as generic Internal Standard (IS). Samples are then diluted with 120 μL of Milli-Q water and centrifuged at 3000 rpm for 10 minutes, prior the LC-MS/MS analysis.
The integrated peak areas for test compounds at the selected time points are divided by the respective peak areas of the IS and the percent of parent remaining is calculated by normalizing the peak area ratio of parent to IS at 0 min. Observed rate constant (kobs) for parent degradation is calculated by determining the slope of the line of the graph of the natural log of percentage parent remaining versus time of incubation. From the rate of depletion (min−1) and volume of the incubation (mL), clearance is estimated. This is scaled for the protein in the incubation relative to that in the intact liver, for all species (mL/min/g liver).
Values for the Human in vitro Clint are expressed as mL/min/g liver.
Assuming a liver weight of 25.7 g/kg and a liver blood flow of 20.7 mL/min/kg, the hepatic extraction ratio, Eh, can be derived from the Human in vitro Clint:
E.g. a Human in vitro Clint of 2.4 mL/min/g liver corresponds to a hepatic extraction ratio of 75%.
Some compounds of the present invention were tested according to example 101.

T1 sequence (P25103 whole entry): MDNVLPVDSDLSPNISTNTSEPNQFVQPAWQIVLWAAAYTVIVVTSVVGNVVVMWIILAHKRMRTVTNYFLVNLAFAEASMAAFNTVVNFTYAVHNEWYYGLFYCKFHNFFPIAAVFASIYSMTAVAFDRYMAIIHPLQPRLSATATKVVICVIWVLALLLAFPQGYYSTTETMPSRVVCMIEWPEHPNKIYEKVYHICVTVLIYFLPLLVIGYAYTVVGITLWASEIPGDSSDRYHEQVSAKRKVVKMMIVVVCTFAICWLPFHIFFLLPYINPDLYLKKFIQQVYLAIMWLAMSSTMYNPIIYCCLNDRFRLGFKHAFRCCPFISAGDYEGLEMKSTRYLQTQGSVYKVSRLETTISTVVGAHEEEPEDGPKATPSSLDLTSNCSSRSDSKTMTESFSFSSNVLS

| SMILES | pIC50 [1] | Human in vitro Clint [2] [mL/min/g] |
| --- | --- | --- |
| Cc1csc([C@H]2[C@@H]3CCC(=O)N3CCN2C(=O)N(C)[C@H](C)c2cc(C(F)(F)F)cc(C(F)(F)F)c2)c1C [Compound 75, (1R,8aS)—N—((R)-1-(3,5-bis(trifluoromethyl)phenyl)ethyl)-1-(3,4-dimethylthiophen-2-yl)-N-methyl-6-oxohexahydropyrrolo[1,2-a]pyrazine-2(1H)-carboxamide] | 9.47 | >200 |
| COc1cccc([C@H]2[C@@H]3CCC(=O)N3CCN2C(=O)N(C)[C@H](C)c2cc(C(C)C)cc(C(F)(F)F)c2)c1C [Compound 78, (1S,8aS)—N—((R)-1-(3-isopropyl-5-(trifluoromethyl)phenyl)ethyl)-1-(3-methoxy-2-methylphenyl)-N-methyl-6-oxohexahydropyrrolo[1,2-a]pyrazine-2(1H)-carboxamide] | 8.73 | >200 |
| Cc1cc(OCc2ccccc2)ccc1[C@H]1[C@@H]2CCC(=O)N2CCN1C(=O)N(C)[C@H](C)c1cc(C(F)(F)F)cc(C(F)(F)F)c1 [Compound 26, (1S,8aS)-1-(4-(benzyloxy)-2-methylphenyl)-N—((R)-1-(3,5-bis(trifluoromethyl)phenyl)ethyl)-N-methyl-6-oxohexahydropyrrolo[1,2-a]pyrazine-2(1H)-carboxamide] | 8.13 | >200 |
| COc1ccc(C2C3CCC(=O)N3CCN2C(=O)N(C)[C@H](C)c2cc(C(F)(F)F)cc(C(F)(F)F)c2)c(C)c1 (single isomer, unassigned) [Compound 18] | 8.94 | >200 |
| Cc1ccc(C2C3CCC(=O)N3CCN2C(=O)N(C)[C@H](C)c2cc(C(F)(F)F)cc(C(F)(F)F)c2)c(C)c1 (single isomer, unassigned) [Compound 2] | 8.11 | >200 |
| COc1ccc([C@H]2[C@@H]3CC(CCO)(CCO)C(=O)N3CCN2C(=O)N(C)[C@H](C)c2cc(C)cc(C(F)(F)F)c2)c(C)c1 [Compound 17, (1S,8aS)-7,7-bis(2-hydroxyethyl)-1-(4-methoxy-2-methylphenyl)-N-methyl-N—((R)-1-(3-methyl-5-(trifluoromethyl)phenyl)ethyl)-6-oxohexahydropyrrolo[1,2-a]pyrazine-2(1H)-carboxamide] | 9.10 | >200 |
| CCc1cc([C@@H](C)N(C)C(=O)N2CCN3C(=O)C(CCO)(CCO)C[C@H]3[C@@H]2c2c[nH]nc2C)cc(C(F)(F)F)c1 [Compound 62, (1S,8aS)—N—((R)-1-(3-ethyl-5-(trifluoromethyl)phenyl)ethyl)-7,7-bis(2-hydroxyethyl)-N-methyl-1-(3-methyl-1H-pyrazol-4-yl)-6-oxohexahydropyrrolo[1,2-a]pyrazine-2(1H)-carboxamide] | 8.97 | 115 |
| C[C@H](c1cc(C(F)(F)F)cc(C(F)(F)F)c1)N(C)C(=O)N1CCN2C(=O)CC[C@H]2[C@@H]1c1cccs1 [Compound 53, (1R,8aS)—N—((R)-1-(3,5-bis(trifluoromethyl)phenyl)ethyl)-N-methyl-6-oxo-1-(thiophen-2-yl)hexahydropyrrolo[1,2-a]pyrazine-2(1H)-carboxamide] | 9.37 | >200 |
| Cc1cc([C@@H](C)N(C)C(=O)N2CCN3C(=O)CC[C@H]3[C@@H]2c2cccc(C)c2C)cc(C(F)(F)F)c1 [Compound 65] | 9.44 | >200 |

These reach a higher pIC50 [1]. Values come first.

| pIC50 [1] | Human in vitro Clint [2] [mL/min/g] | SMILES |
| --- | --- | --- |
| 10.26 | >200 | CCc1cc([C@@H](C)N(C)C(=O)N2CCN3C(=O)CC[C@H]3[C@@H]2c2sccc2C)cc(C(F)(F)F)c1 [Compound 51, (1R,8aS)—N—((R)-1-(3-ethyl-5-(trifluoromethyl)phenyl)ethyl)-N-methyl-1-(3-methylthiophen-2-yl)-6-oxohexahydropyrrolo[1,2-a]pyrazine-2(1H)-carboxamide] |
| 10.23 | 61 | CCc1cc([C@@H](C)N(C)C(=O)N2CCN3C(=O)C(CCO)(CCO)C[C@H]3[C@@H]2c2ccc(O)cc2C)cc(C(F)(F)F)c1 [Compound 31, (1S,8aS)—N—((R)-1-(3-ethyl-5-(trifluoromethyl)phenyl)ethyl)-1-(4-hydroxy-2-methylphenyl)-7,7-bis(2-hydroxyethyl)-N-methyl-6-oxohexahydropyrrolo[1,2-a]pyrazine-2(1H)-carboxamide] |
| 10.10 | 30 | Cc1ccc(C)c([C@H]2[C@@H]3CC(CCO)(CCO)C(=O)N3CCN2C(=O)N(C)[C@H](C)c2cc(C(F)(F)F)cc(C(F)(F)F)c2)c1 [Compound 37, (1S,8aS)—N—((R)-1-(3,5-bis(trifluoromethyl)phenyl)ethyl)-1-(2,5-dimethylphenyl)-7,7-bis(2-hydroxyethyl)-N-methyl-6-oxo-hexahydropyrrolo[1,2-a]pyrazine-2(1H)-carboxamide] |
| 9.94 | 18 | Cc1cc(O)ccc1[C@H]1[C@@H]2CC(CCO)(CCO)C(=O)N2CCN1C(=O)N(C)[C@H](C)c1cc(C(F)(F)F)cc(C(F)(F)F)c1 [Compound 30, (1S,8aS)—N—((R)-1-(3,5-bis(trifluoromethyl)phenyl)ethyl)-1-(4-hydroxy-2-methylphenyl)-7,7-bis(2-hydroxyethyl)-N-methyl-6-oxo-hexahydropyrrolo[1,2-a]pyrazine-2(1H)-carboxamide] |
| 9.89 | >200 | Cc1cccc(F)c1[C@H]1[C@@H]2CCC(=O)N2CCN1C(=O)N(C)[C@H](C)c1cc(C(F)(F)F)cc(C(F)(F)F)c1 [Compound 82, (1S,8aS)—N—((R)-1-(3,5-bis(trifluoromethyl)phenyl)ethyl)-1-(2-fluoro-6-methylphenyl)-N-methyl-6-oxohexahydropyrrolo[1,2-a]pyrazine-2(1H)-carboxamide] |
| 10.43 | 78 | CCc1cc([C@@H](C)N(C)C(=O)N2CCN3C(=O)CC[C@H]3[C@@H]2c2ccc(F)cc2C)cc(C(F)(F)F)c1 [Compound 23, (1S,8aS)—N—((R)-1-(3-ethyl-5-(trifluoromethyl)phenyl)ethyl)-1-(4-fluoro-2-methylphenyl)-N-methyl-6-oxohexahydropyrrolo[1,2-a]pyrazine-2(1H)-carboxamide] |
| 10.19 | >200 | Cc1cc(O)ccc1[C@H]1[C@@H]2CCC(=O)N2CCN1C(=O)N(C)[C@H](C)c1cc(C(F)(F)F)cc(C(F)(F)F)c1 [Compound 27, (1S,8aS)—N—((R)-1-(3,5-bis(trifluoromethyl)phenyl)ethyl)-1-(4-hydroxy-2-methylphenyl)-N-methyl-6-oxohexahydropyrrolo[1,2-a]pyrazine-2(1H)-carboxamide] |
